Assay results taken from publication PMC8413904 (Pharmacology Research & Perspectives, 2021).

What was measured:
GluN1/2A = GluN1/2A (UniProt P35439+Q12879); assay: TEVC electrophysiology dose–response in xenopus oocytes; type: cell-based; conditions: 100 µM CNS4, −60 mV, average ± SEM
Description: (§1) NMDAR constructs: cDNA encoding the NMDAR1a subunit (GluN1a) was obtained from Dr. Nakanishi. cDNA encoding the GluN2B (pci_sepGluN2B) was developed initially in the Malinow lab[36] and purchased from Addgene (cat# 23998). cDNA encoding the GluN2C and GluN2D were purchased from GenScript. Mutated GluN1, 2A and 2B cDNA constructs capable of assembling as GluN1/2A/2B triheteromeric (1/2AB) receptors[37] were obtained from Dr. Paoletti (Laboratoire de Neurobiologie, CNRS). […] Plasmids were linearized with NotI (GluN1a) or Avrll (GluN2B), or BstB1 (GluN2C and GluN2D) and transcribed in vitro with T7 (GluN1a, GluN1/2A, GluN2B, GluN2C, & GluN2D) RNA polymerase using the mMessage mMachine transcription kits (Invitrogen by Thermo Fisher Scientific).
(§2) Stage IV frog oocytes were obtained from Xenopus‐I. NMDAR subunit cRNAs were suspended in nuclease‐free sterile water. GluN1A, GluN2B, GluN2C, GluN2D, and GluN1/2A/2B cRNAs were mixed in a ratio of 1:1–3. 50 nl of the final cRNA mixture was microinjected (40–70 ng total) into the oocyte cytoplasm. Oocytes were incubated in ND‐96 solution at 18^◦C prior to electrophysiological recordings (1–3 days).
Electrophysiological responses were measured using a standard two‐microelectrode voltage‐clamp workstation [Warner Instruments (Hamden, Connecticut) model OC‐725C] designed to provide a fast clamp of large cells. The recording buffer contained 116 mM NaCl, 2 mM KCl, 0.3 mM BaCl2, and 5 mM HEPES, pH 7.4. Response magnitude was determined in xenopus oocytes expressing different NMDAR subunits (GluN1/2A, 1/2B, 1/2C, 1/2D, and 1/2A/2B) by the steady plateau response elicited by bath application of different agonist concentrations. […] Response amplitudes for functional NMDARs were generally between 0.1 and 2 μA. […] Dose–response relationships were fit to an appropriate curve‐fitting equation using GraphPad Prism‐7. Nonlinear regression was used to calculate EC50 and/or percentage maximal response. Curve fittings were done using the following equations as performed in the previous studies[34], [39]: Y = 100/(1 + 10^(LogEC50‐X)) or Y = Bottom + (Top − Bottom)/(1+10^(LogEC50‐X)). Statistical significance was determined at the overall alpha level .05, using appropriate statistical methods as described in each figure captions.

GluN1/2B = GluN1/2B (Rattus norvegicus, UniProt P35439+Q00960); assay: Current–voltage (I–V) relationship, TEVC in xenopus oocytes
Procedure: (§3) GluN1A, GluN2B, GluN2C, GluN2D, and GluN1/2A/2B cRNAs were mixed in a ratio of 1:1–3. 50 nl of the final cRNA mixture was microinjected (40–70 ng total) into the oocyte cytoplasm. Oocytes were incubated in ND‐96 solution at 18^◦C prior to electrophysiological recordings (1–3 days).
(§4) After obtaining a steady‐state response to different agonist applications, agonist plus 100 μM CNS4 or agonist plus 40 μM MgCl2 plus 100 μM CNS4 was applied. […] Data points were aligned by least‐square fit by third‐order polynomial equation (Y = B0 + B1*X +B2*X ^2 + B3*X ^3), except for GluN1/2B that needed a fourth‐order polynomial equation.

[1] = system: cultured rat brain cortical neurons; assay: Dynamic calcium assay (Fluo‐8); type: cell-based
Procedure: All animal experimental procedures and housing have been approved by the Institutional Animal Care and Use Committee (IACUC) protocol #18‐015 of Virginia Tech. Embryonic day 18 (E18) rat brain tissue samples were obtained from adult pregnant SD rats. Rat brain primary cortical, striatal, and cerebellar neurons were cultured on poly‐d‐lysine coated 96‐well plates for 14 days in vitro (DIV14) before using for the experiments. Primary rat neuron culture was performed as previously published.[44] Briefly, each well of a 96 well plate was loaded with 50 000 cells and grown in 200 µl neurobasal media supplemented with B27, glutamax, penicillin, streptomycin. One hundred microliters of media was replaced with fresh media once in 4 days. Eight to thirteen fetus were obtained from each pregnant rat. Brain tissue from these fetus were pooled to obtain the neurons. Cortical, striatal, and cerebellar neuron assays were carried out at different time points.
Dynamic calcium assay was carried out, using Fluo‐8 no‐wash kit (abcam, ab112129), as per the manufacturer's instructions with minor modifications to fit with experimental necessities. On DIV14, all 200 μl of media was removed and replaced it with 100 μl of HBSS and 100 μl of Fluo‐8 dye loading solution. The plates were incubated at 37°C for 30 min and at room temperature for 30 min. […] Costar 96‐well clear bottom black side plates were read from the bottom, nine times, with 60 s intervals between each read. Temperature was set at 37°C and reading speed was 100 ms.

[2] = target: GluN1/2A/2B triheteromeric (1/2AB) receptors (Rattus norvegicus, UniProt P35439+Q00959+Q01097); assay: TEVC electrophysiology dose–response in xenopus oocytes; conditions: 100 µM CNS4, −60 mV, average ± SEM
Chain of GluN1/2A/2B triheteromeric (1/2AB) receptors (Q01097 27-1482, other chains not shown): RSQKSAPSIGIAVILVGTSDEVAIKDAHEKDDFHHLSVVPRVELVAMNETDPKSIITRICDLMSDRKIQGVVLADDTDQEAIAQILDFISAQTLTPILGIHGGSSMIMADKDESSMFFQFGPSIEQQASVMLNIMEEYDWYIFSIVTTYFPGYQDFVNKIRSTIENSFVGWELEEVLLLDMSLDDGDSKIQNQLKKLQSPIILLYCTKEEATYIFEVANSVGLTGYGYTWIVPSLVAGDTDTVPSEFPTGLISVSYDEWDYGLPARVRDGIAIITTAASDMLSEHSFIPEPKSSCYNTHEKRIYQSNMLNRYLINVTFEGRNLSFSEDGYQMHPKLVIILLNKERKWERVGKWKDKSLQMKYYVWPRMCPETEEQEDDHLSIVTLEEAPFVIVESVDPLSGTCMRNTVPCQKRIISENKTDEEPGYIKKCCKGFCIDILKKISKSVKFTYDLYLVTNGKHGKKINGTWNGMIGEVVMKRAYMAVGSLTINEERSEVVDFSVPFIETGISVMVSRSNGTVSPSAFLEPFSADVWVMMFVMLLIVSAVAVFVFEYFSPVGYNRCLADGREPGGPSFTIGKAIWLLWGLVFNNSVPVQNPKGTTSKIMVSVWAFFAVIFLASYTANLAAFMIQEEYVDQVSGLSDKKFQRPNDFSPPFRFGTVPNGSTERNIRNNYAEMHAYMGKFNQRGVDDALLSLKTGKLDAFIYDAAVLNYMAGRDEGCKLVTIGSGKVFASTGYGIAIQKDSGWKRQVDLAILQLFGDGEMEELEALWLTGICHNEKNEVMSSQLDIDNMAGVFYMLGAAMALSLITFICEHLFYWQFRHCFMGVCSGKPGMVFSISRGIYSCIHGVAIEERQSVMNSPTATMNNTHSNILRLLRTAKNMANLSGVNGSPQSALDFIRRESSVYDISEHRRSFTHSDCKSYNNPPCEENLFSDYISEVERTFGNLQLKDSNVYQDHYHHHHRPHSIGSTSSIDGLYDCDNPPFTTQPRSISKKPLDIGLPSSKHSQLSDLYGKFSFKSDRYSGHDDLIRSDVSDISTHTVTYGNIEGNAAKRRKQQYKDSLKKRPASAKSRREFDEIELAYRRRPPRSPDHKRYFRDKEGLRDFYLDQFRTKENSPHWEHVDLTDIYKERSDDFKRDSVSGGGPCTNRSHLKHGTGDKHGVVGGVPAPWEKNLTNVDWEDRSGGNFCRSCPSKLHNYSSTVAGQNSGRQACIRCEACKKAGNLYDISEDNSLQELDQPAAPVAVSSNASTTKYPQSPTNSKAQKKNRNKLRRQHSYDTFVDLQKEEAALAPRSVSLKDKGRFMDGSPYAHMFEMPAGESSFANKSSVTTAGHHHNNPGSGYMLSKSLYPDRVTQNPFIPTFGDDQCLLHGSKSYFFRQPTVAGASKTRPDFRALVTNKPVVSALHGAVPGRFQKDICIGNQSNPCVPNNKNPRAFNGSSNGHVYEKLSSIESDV
Chain of GluN1/2A/2B triheteromeric (1/2AB) receptors (Q00959 23-1464, other chains not shown): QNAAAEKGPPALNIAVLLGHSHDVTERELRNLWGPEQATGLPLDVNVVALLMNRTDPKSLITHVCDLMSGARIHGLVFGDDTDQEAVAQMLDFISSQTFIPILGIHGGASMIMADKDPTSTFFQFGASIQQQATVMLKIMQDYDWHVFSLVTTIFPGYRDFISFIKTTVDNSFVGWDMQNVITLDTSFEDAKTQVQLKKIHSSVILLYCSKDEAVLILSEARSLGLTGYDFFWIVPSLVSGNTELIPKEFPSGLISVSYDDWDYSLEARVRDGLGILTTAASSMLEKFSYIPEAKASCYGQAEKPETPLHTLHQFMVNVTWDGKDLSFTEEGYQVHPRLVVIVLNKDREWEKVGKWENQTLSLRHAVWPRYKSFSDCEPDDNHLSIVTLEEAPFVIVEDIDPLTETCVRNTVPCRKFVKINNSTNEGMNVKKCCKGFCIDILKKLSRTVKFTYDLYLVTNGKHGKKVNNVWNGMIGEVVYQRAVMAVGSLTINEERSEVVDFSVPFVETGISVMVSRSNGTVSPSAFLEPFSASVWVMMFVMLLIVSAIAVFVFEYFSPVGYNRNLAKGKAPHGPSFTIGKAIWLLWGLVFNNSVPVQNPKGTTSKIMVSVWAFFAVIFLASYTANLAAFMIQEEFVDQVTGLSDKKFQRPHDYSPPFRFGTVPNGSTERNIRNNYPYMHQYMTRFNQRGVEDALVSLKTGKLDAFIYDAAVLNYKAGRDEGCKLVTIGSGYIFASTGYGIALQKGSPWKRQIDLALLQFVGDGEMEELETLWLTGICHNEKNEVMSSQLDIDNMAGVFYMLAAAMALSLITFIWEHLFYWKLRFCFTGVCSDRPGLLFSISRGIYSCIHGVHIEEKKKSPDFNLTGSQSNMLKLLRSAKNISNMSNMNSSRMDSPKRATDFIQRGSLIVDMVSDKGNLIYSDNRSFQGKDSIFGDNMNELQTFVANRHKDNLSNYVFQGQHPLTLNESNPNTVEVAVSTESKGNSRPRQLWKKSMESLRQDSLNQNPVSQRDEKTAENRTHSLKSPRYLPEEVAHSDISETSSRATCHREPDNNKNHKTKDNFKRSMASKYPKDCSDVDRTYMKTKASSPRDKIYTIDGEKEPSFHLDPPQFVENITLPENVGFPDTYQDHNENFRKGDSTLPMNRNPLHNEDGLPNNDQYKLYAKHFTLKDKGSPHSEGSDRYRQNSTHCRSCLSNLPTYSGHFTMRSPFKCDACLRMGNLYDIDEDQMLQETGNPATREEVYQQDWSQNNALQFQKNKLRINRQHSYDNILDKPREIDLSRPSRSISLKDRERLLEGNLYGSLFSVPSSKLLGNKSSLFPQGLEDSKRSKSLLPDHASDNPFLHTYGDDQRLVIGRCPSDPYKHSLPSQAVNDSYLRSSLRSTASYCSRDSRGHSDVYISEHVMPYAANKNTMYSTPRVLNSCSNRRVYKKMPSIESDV
Description: as §1, §2
Electrophysiological responses were measured using a standard two‐microelectrode voltage‐clamp workstation [Warner Instruments (Hamden, Connecticut) model OC‐725C] designed to provide a fast clamp of large cells. The recording buffer contained 116 mM NaCl, 2 mM KCl, 0.3 mM BaCl2, and 5 mM HEPES, pH 7.4. Response magnitude was determined in xenopus oocytes expressing different NMDAR subunits (GluN1/2A, 1/2B, 1/2C, 1/2D, and 1/2A/2B) by the steady plateau response elicited by bath application of different agonist concentrations. […] Response amplitudes for functional NMDARs were generally between 0.1 and 2 μA. […] Dose–response relationships were fit to an appropriate curve‐fitting equation using GraphPad Prism‐7. Nonlinear regression was used to calculate EC50 and/or percentage maximal response. […] Statistical significance was determined at the overall alpha level .05, using appropriate statistical methods as described in each figure captions.

GluN1/2C = GluN1/2C (UniProt P35439+Q14957); assay: Current–voltage (I–V) relationship, TEVC in xenopus oocytes
Procedure: as §3, §4

[3] = 0.3 µM glutamate + 100 µM glycine
[4] = 100 µM glutamate + 100 µM glycine
[5] = 300 µM glutamate + 100 µM glycine
[6] = 100 µM CNS4, 100 µM glutamate + 100 µM glycine, −90 to +30 mv

Chain of GluN1/2A (Q12879 23-1464, other chains not shown): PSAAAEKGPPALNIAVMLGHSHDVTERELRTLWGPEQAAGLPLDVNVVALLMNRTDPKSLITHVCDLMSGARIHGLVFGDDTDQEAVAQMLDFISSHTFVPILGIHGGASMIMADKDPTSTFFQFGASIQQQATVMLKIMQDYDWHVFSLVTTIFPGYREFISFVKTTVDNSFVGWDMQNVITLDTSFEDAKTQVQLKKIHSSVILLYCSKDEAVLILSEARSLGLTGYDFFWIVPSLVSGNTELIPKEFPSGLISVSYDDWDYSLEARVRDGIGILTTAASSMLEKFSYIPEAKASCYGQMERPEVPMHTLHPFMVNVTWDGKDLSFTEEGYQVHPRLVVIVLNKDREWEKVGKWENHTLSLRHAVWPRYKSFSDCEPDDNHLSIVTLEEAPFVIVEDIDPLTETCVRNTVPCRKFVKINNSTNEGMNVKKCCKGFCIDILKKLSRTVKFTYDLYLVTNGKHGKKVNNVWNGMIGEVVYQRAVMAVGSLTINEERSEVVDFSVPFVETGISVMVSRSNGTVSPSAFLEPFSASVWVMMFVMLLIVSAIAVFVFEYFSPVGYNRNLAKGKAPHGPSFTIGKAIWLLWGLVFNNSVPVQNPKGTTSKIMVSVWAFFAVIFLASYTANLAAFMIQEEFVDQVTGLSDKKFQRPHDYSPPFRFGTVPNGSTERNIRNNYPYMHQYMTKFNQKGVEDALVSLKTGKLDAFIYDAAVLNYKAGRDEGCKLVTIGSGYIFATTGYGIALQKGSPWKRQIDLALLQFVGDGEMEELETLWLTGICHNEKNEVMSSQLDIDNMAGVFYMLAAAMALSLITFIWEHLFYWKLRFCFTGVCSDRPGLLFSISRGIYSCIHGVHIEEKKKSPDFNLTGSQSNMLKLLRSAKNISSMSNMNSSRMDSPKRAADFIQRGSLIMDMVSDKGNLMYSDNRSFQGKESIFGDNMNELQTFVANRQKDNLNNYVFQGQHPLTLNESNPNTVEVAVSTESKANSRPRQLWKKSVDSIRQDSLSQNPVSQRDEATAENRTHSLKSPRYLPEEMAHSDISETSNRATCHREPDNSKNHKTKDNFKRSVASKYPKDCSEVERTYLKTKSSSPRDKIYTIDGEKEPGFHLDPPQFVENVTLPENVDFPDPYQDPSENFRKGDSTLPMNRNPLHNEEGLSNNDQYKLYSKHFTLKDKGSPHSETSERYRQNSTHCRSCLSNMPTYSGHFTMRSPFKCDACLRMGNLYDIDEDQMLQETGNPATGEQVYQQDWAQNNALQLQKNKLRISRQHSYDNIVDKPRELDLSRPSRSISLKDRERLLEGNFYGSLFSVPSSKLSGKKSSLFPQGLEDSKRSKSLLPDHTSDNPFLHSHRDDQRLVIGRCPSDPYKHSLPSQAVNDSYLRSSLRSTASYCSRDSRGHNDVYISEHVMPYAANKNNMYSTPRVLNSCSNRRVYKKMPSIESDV

Q: `O=C(NC(=S)N1CCCCC1c1cccnc1)c1ccc(F)cc1` (stereo not shown) [CNS4, 4‐fluoro‐N‐(2‐(pyridin‐3‐yl)piperidine‐1‐carbonothioyl)benzamide] was tested. Which “current response, agonist alone induced maximum current normalized to 100%” value (GluN1/2A; [3]) did it give?
A: The value was “negligible effect”.

Q: And the “current response, agonist alone induced maximum current normalized to 100%” value (GluN1/2A; [4])?
A: Its value is 186.08% ± 23.5%.

Q: And the “current response, agonist alone induced maximum current normalized to 100%” value (GluN1/2A; [5])?
A: Its value is 122.87% ± 9.9%.

Q: And the “voltage dependence of effect on current amplitude” value (GluN1/2B; [6])?
A: Its value is “no voltage dependence effect”.

Q: What about the reversal potential (GluN1/2B; agonist (100 µM glutamate + 100 µM glycine) + 40 µM MgCl2 + 100 µM CNS4, without CNS4 −11.66 ± 1.25, p > .05) of the same compound?
A: The reversal potential was −6.9 ± 0.74 mv.

Q: What about the reversal potential (GluN1/2B; agonist (100 µM glutamate + 100 µM glycine) + 100 µM CNS4, absence of Mg^2+, agonist alone −11.66 ± 1.55, p > .05) of the same compound?
A: Its reversal potential is −10.89 ± 1.9 mv.

Q: What about the “calcium signals compared to CNS4 alone treated cells” value ([1]; 100 µM CNS4 + 10 µM or higher concentrations of NMDA) of the same compound?
A: Its value is “significantly increased calcium signals”.

Q: And the “Ca^2+ signal, mean rfu” value ([1]; 100 µM CNS4 + 100 µM GABA, p < .001 vs GABA alone (4196))?
A: Its value is 5124 rfu.

Q: What about the “Ca^2+ signal, mean rfu” value ([1]; 100 µM CNS4 + 100 µM acetylcholine, p < .0001 vs acetylcholine alone (6222)) of the same compound?
A: Its value is 8082 rfu.

Q: And the “Ca^2+ signal, mean rfu” value ([1]; 100 µM CNS4 + 100 µM glutamate + 50 µM MK801, p = .7757 vs glutamate + MK801 (7997))?
A: Its value is 8359 rfu.

Q: What about the “Ca^2+ signal compared to background” value ([1]; 100 µM CNS4 in the presence of 0.3, 1, 3 µM NMDA) of the same compound?
A: Its value is “did not increase Ca^2+ signal”.

Q: What about the “Ca^2+ signal without NMDA” value ([1]; 100 µM CNS4 in vehicle (HBSS) with no NMDA, Figure 6A) of the same compound?
A: The value was “no significant Ca^2+ signal”.

Q: What about the “more Ca^2+ signal compared to plain 300 µM NMDA” value ([1]; 100 µM CNS4 plus 300 µM NMDA) of the same compound?
A: The value was 43%.

Q: And the “Ca^2+ signal, mean rfu” value ([1]; 100 µM CNS4 plus 300 µM NMDA, p < .0001 vs 300 µM NMDA alone (26711))?
A: The value was 38274 rfu.

Q: What about the “current response, agonist alone induced maximum current normalized to 100%” value [2, 3] of the same compound?
A: The value was 264.37% ± 16.9%.

Q: What about the “current response, agonist alone induced maximum current normalized to 100%” value [2, 4] of the same compound?
A: Its value is 122.65% ± 1.9%.

Q: And the “current response, agonist alone induced maximum current normalized to 100%” value [2, 5]?
A: The value was 144.47% ± 11.8%.

Q: And the “inward current reversal potential” value (GluN1/2C; 0.3 µM glutamate + 100 µM glycine + CNS4, absence of Mg2+, without CNS4 -86.44± 0.74, p<0.0001, n=7)?
A: The value was -75.15±1.33 mv.

Q: And the “inward current reversal potential” value (GluN1/2C; 0.3 µM glutamate + 100 µM glycine + CNS4, presence of Mg2+, without CNS4 -88.59± 0.30, p<0.001, n=7)?
A: Its value is -79.25±1.87 mv.

Q: What about the “voltage dependence of effect on current amplitude” value (GluN1/2C; [6]) of the same compound?
A: The value was “no voltage dependence effect”.

Q: What about the reversal potential (GluN1/2C; agonist (100 µM glutamate + 100 µM glycine) + 40 µM MgCl2 + 100 µM CNS4, without CNS4 −81.75 ± 1.37, p < .01) of the same compound?
A: Its reversal potential is −75.53 ± 0.59 mv.

Q: What about the reversal potential (GluN1/2C; agonist (100 µM glutamate + 100 µM glycine) + 100 µM CNS4, absence of Mg^2+, agonist alone −69.55 ± 1.51, p < .01) of the same compound?
A: Its reversal potential is −63.64 ± 0.80 mv.
